Target: EGFR (Homo sapiens, UniProt P00533)
Assay: in vitro EGFR inhibition, Human EGFR ELISA kit
Assay type: biochemical

Chain of EGFR (P00533 25-1210): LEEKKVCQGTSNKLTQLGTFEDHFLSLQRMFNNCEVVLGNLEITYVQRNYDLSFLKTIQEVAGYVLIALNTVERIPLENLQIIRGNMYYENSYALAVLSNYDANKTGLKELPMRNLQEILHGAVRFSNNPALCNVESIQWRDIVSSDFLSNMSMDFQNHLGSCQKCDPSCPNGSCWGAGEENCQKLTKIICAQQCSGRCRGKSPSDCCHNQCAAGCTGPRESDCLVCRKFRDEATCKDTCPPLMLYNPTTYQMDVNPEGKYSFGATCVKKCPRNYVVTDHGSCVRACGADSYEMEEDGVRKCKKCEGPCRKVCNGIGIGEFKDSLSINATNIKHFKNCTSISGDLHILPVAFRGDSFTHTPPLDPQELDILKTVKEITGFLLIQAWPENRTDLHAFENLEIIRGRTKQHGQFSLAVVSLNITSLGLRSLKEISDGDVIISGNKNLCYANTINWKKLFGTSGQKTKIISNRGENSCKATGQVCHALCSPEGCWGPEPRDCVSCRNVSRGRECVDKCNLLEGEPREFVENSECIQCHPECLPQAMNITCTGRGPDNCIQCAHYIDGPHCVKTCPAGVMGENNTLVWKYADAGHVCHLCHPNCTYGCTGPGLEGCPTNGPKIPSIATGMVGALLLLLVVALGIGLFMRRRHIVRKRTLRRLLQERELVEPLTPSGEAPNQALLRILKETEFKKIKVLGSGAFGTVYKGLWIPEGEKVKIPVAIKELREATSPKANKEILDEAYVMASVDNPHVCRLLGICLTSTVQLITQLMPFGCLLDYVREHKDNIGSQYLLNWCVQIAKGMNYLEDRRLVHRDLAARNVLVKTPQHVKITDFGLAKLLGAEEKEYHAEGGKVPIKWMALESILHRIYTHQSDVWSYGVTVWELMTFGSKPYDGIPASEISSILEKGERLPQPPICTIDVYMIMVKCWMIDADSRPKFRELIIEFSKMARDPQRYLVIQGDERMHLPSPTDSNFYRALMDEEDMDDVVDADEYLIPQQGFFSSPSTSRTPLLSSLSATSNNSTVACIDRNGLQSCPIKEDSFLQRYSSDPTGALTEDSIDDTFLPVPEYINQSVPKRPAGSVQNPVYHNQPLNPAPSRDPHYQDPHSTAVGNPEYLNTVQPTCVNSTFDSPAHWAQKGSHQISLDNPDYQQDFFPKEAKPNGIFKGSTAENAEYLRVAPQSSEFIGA

Molecule Cc1cccc(NC(=O)Cn2c(=O)c3c(ncn3C)n(C)c2=O)c1 [T-1-MTA] has an IC50 of 22.9 nM.

From paper PMC9997933, “Anticancer derivative of the natural alkaloid, theobromine, inhibiting EGFR protein: Computer-aided drug discovery approach” (PLOS ONE, 2023)
